Assay results: PMC10812672, “Short Antimicrobial Peptide Derived from the Venom Gland Transcriptome of Pamphobeteus verdolaga Increases Gentamicin Susceptibility of Multidrug-Resistant Klebsiella pneumoniae” (Antibiotics, 2023)
Read-outs that look alike come from different tables or passages of the source. Ends that are not written are not given here.

Tests used:
E. coli ATCC® 25922 [1] = assay type: cell-based, Escherichia coli; details: for MIC: 1.56–200 µM, visual inspection, triplicate, three independent assays; for MIC / MBC: 24 h 37 °C; for MBC: plating on Mueller-Hinton agar, absence of growth
Protocol: (§1) The nine AMPs identified in the initial screening were evaluated at concentrations between 1.56–200 µM, against E. coli ATCC® 25922, S. aureus ATCC® 29213, E. faecalis ATCC® 49532, P. aeruginosa ATCC® 9027, and K. pneumoniae ATCC® BAA-1705 (Supplementary Figures S2–S6). […] Only PvAMP66 and PvAMP172 reached the MBC for S. aureus at 50 µM and 100 µM, respectively (Table 2).
(§2) The evaluation of the antimicrobial activity of the peptides was conducted using the CLSI’s broth microdilution method for bacterial susceptibility testing. For the screening phase, peptides were evaluated at a single 30 μM concentration, in triplicate and in three independent assays, against the E. coli ATCC® 8739, E. coli ATCC® 25922, S. aureus ATCC® 6538, or S. aureus ATCC® 29213 reference USP and CLSI strains. For the determination of MIC, MBC, or IC50, peptides or antibiotics were evaluated in concentrations between 1.56–200 µM. These evaluations were conducted in triplicate and in three independent assays, against the E. coli ATCC® 25922, S. aureus ATCC® 29213, E. faecalis ATCC® 49532, P. aeruginosa ATCC® 9027, and K. pneumoniae ATCC® BAA-1705, or the clinically isolated MDR strain. In detail, 1 mL of a glycerol stock solution of the ATCC® or clinically isolated bacterial strain was added to 9 mL of Mueller-Hinton Broth and incubated for 18 h, 180 rpm and 37 °C (Incubator 1000, Heidolph Instruments, Schwabach, Germany). After the incubation, 1 mL of the previous solution was transferred to a new recipient containing 9 mL of fresh Mueller-Hinton broth and incubated for 4 h, 180 rpm and 37 °C (Incubator 1000, Heidolph Instruments, Schwabach, Germany). During the second incubation, the peptides or the antibiotics were dissolved in PBS pH 7.20 in concentrations between 19.53–2500 µM (MC5 Micro Balance, Sartorius AG, Göttingen, Germany). An amount of 10 µL of either peptide or antibiotic was dispensed in triplicate in 96-well flat bottom culture plates, along with 10 µL of PBS (Negative activity control), BTM-P1 (Positive activity control), or 10 µL of Mueller-Hinton broth (Blank); then, 110 µL of Mueller-Hinton broth was poured in all wells. Following this, the bacteria were suspended in Mueller-Hinton broth up to a concentration of approximately 1.50 × 10^8 CFU/mL, as measured by optical density at 600 nm between 0.06 to 0.11 (0.5 McFarland standard), in a Multiskan SkyHigh spectrophotometer (ThermoFisher Scientific, Waltham, MA, USA). Amounts of 5 µL of the 1.50 × 10^8 CFU/mL suspension were added to each well (except for the blank) for a final well concentration of approximately 6 × 10^6 CFU/mL. The plate was incubated for 24 h at 37 °C (BE 500, Memmert GmbH, Büchenbach, Germany) and optical density was measured at 600 nm in a Multiskan SkyHigh spectrophotometer (ThermoFisher Scientific, Waltham, MI, USA). Following the measurement of optical density, plates were visually inspected to determine the MIC. Subsequently, 100 µL of the concentration associated to the MIC and 100 µL of the next higher concentration were added to Petri dishes containing Mueller-Hinton Agar. The dishes were then incubated for 24 h at 37 °C (BE 500, Memmert GmbH, Büchenbach, Germany). After incubation, the Petri dishes were visually inspected, and the MBC was determined in the absence of growth. IC50 values were interpolated from regressions with correlation values above 0.70. Growth inhibition percentages were calculated as follows: Growth inhibition %=1−AbsPEPTIDE or ANTIBIOTIC−Median AbsBLANK/Median AbsPBS−Median AbsBLANK×100

S. aureus ATCC® 29213 [2] = assay type: cell-based, Staphylococcus aureus; details: for IC50: growth inhibition OD600, 95% confidence interval in parentheses; for MIC: 1.56–200 µM, 24 h 37 °C, visual inspection, triplicate, three independent assays
Protocol: as §1, §2

E. coli ATCC® 25922 [3] = assay type: cell-based, Escherichia coli; details: CLSI broth microdilution, Mueller-Hinton broth, peptide 30 µM, ~6 × 10^6 CFU/mL, 24 h 37 °C, OD600; triplicate, three independent assays; NA = no activity
Protocol: (§3) Activity screening was conducted using the broth microdilution method at a fixed peptide concentration of 30 µM against E. coli ATCC® 8739 and 25922, as well as S. aureus ATCC® 6538 and 29213. The bacterial density used for screening was approximately 6 × 10^6 CFU/mL [30]. Peptide activity measurements were conducted in terms of the growth inhibition percentage. No dose-response curves were generated during the screening phase as a resource optimization strategy in the initial activity evaluation. […] For S. aureus ATCC® 6538 and S. aureus ATCC® 29213, growth inhibition ranged from 0% to 140% and 0% to 98%, respectively (Table 1).
as §2

E. coli ATCC® 8739 = assay type: cell-based, Escherichia coli; details: CLSI broth microdilution, Mueller-Hinton broth, peptide 30 µM, ~6 × 10^6 CFU/mL, 24 h 37 °C, OD600; triplicate, three independent assays; NA = no activity
Protocol: as §3, §2

P. aeruginosa ATCC® 9027 = assay type: cell-based, Pseudomonas aeruginosa; details: for MIC: 1.56–200 µM, 24 h 37 °C, visual inspection, triplicate, three independent assays; for IC50: growth inhibition OD600, 95% confidence interval in parentheses; for MBC: plating on Mueller-Hinton agar, absence of growth
Protocol: as §1, §2

S. aureus ATCC® 29213 [4] = assay type: cell-based, Staphylococcus aureus; details: CLSI broth microdilution, Mueller-Hinton broth, peptide 30 µM, ~6 × 10^6 CFU/mL, 24 h 37 °C, OD600; triplicate, three independent assays; NA = no activity
Protocol: as §3, §2

S. aureus ATCC® 6538 = assay type: cell-based, Staphylococcus aureus; details: CLSI broth microdilution, Mueller-Hinton broth, peptide 30 µM, ~6 × 10^6 CFU/mL, 24 h 37 °C, OD600; triplicate, three independent assays; NA = no activity
Protocol: as §3, §2

MDR K. pneumoniae = experiment: Isobologram analysis and FICI, PvAMP66 with gentamicin; assay type: cell-based, Klebsiella pneumoniae
Protocol: Given the intermediate resistance to gentamicin, an isobologram analysis was used as a proof-of-concept to evaluate the interaction between PvAMP66 and the antibiotic. The growth inhibition of the clinical isolate was measured using peptide concentrations of 0.10–100 µM, and gentamicin concentrations of 0.10–50 µM (Supplementary Figure S10). Combined IC50 values were calculated and plotted in a graph with a secant line representing the IC50 values for PvAMP66 and gentamicin when used alone (Figure 2a). […] The concentrations adjacent to the aforementioned data point were evaluated. […] Additionally, a Fractional Inhibitory Concentration Index (FICI) of 0.59 was obtained.
For the isobologram analysis concentrations, ranges of 1.56 µM to 200 µM of the peptide and 0.07 µM to 100 µM of the gentamicin were used. The experiments were conducted in triplicate and repeated in two independent assays. The IC50 for each combination was determined using either logarithmic or linear regression. Then, when achieving 50% growth inhibition, the concentrations of the peptide and gentamicin were recorded and used to create an isobologram graph with a ‘peptide concentration’ vs. ‘gentamicin concentration’ plot. […] The fractional inhibitory concentration index was calculated as follows: FICI=Combined MICAntibiotic/MICAntibiotic+Combined MICPeptide/MICPeptide

[5] = test system: multidrug-resistant (MDR) strain of K. pneumoniae, clinical isolate; experiment: microbe, parasite or virus in culture; assay type: cell-based, Klebsiella pneumoniae
Protocol: A multidrug-resistant (MDR) strain of K. pneumoniae was identified and isolated from a tertiary-level hospital in Medellin, Colombia, using the VITEK-2 system (bioMérieux, Marcy-l’Étoile, France). The MDR strain was evaluated against several antibiotics at concentrations of 1.56–100 μM. […] In contrast, the strain was susceptible to doxycycline (Supplementary Figure S7g) and chloramphenicol (Supplementary Figure S7h), with MICs of 50 μM and 100 µM, respectively (Table 3). […] All of P. verdolaga’s AMPs were evaluated against the clinical isolate at concentrations of 1.56–200 µM (Supplementary Figure S8). […] A growth inhibition kinetic assay was conducted. […] All of P. verdolaga’s peptides at 100 μM induced morphological changes in the MDR K. pneumoniae, indicating membrane interactions, even though no significant inhibition was observed (Supplementary Figure S9).
as §2, with “Growth inhibition percentages were calculated as follows: Growth inhibition %=1−AbsPEPTIDE or ANTIBIOTIC−Median AbsBLANK/Median AbsPBS−Median AbsBLANK×100” left out

[6] = growth inhibition OD600, interpolated from regression, 95% confidence interval in parentheses, read-out: IC50

QCRKLCFRNRCLTYCRGR-NH2 (disulfide (positions not given here)) [PvAMP177, predicted P. verdolaga AMP]
MIC (E. coli ATCC® 25922 [1]): 25 µM | IC50 (E. coli ATCC® 25922 [1]; [6]): 25.3 µM | MBC (E. coli ATCC® 25922 [1]): 50 µM | IC50 (E. coli ATCC® 25922 [1]; same result in µg/mL): 6.64 µg/mL | IC50 (S. aureus ATCC® 29213 [2]): 138 µM | E. coli ATCC® 25922 (Inhibition %) (E. coli ATCC® 25922 [3]): 56.76 ± 3.64 % | E. coli ATCC® 8739 (Inhibition %) (E. coli ATCC® 8739): 93.07 ± 7.11 % | MIC (P. aeruginosa ATCC® 9027): 50 µM | IC50 (P. aeruginosa ATCC® 9027): 25.9 µM | MBC (P. aeruginosa ATCC® 9027): 50 µM

IIKKIWK-NH2 [PvAMP32]
MIC (E. coli ATCC® 25922 [1]): 100 µM | IC50 (E. coli ATCC® 25922 [1]; [6]): 94.7 µM | MBC (E. coli ATCC® 25922 [1]): 100 µM | MIC (S. aureus ATCC® 29213 [2]): 50 µM | IC50 (S. aureus ATCC® 29213 [2]): 108 µM | S. aureus ATCC® 29213 (Inhibition %) (S. aureus ATCC® 29213 [4]): 33.17 ± 8.46 % | S. aureus ATCC® 6538 (Inhibition %) (S. aureus ATCC® 6538): 43.62 ± 4.90 % | E. coli ATCC® 25922 (Inhibition %) (E. coli ATCC® 25922 [3]): 21.19 ± 3.82 % | E. coli ATCC® 8739 (Inhibition %) (E. coli ATCC® 8739): 30.73 ± 5.21 % | MIC (P. aeruginosa ATCC® 9027): 100 µM | IC50 (P. aeruginosa ATCC® 9027): 124 µM | MBC (P. aeruginosa ATCC® 9027): 100 µM

CNC(C)C1CCC(N)C(OC2C(N)CC(N)C(OC3OCC(C)(O)C(NC)C3O)C2O)O1 (centres unmarked) [Gentamicin, gentamicin]
IC50 (MDR K. pneumoniae; Klebsiella pneumoniae, with PvAMP66 9.85 µM, read-out: combined IC50 for gentamicin): 3.12 µM | combined MIC, gentamicin (MDR K. pneumoniae; with 12.50 µM PvAMP66): 4.70 µM | IC50 ([5]; Klebsiella pneumoniae): 33.4 µM | MIC ([5]; Klebsiella pneumoniae, MDR K. pneumoniae clinical isolate): 9.31 µg/mL | Classification at 10^6 CFU/mL ([5]; MDR K. pneumoniae clinical isolate, CLSI classification): Intermediate resistant | MIC ([5]; MDR K. pneumoniae clinical isolate, peptides 1.56–200 µM, antibiotics 1.56–100 µM, 24 h 37 °C): 50.00 µM

CRKLCFRNRCLTYCRGR-NH2 (disulfide (positions not given here)) [PvAMP172, predicted P. verdolaga AMP]
MIC (E. coli ATCC® 25922 [1]): 50 µM | IC50 (E. coli ATCC® 25922 [1]; [6]): 42.9 µM | MBC (E. coli ATCC® 25922 [1]): 50 µM | MIC (S. aureus ATCC® 29213 [2]): 100 µM | MBC (S. aureus ATCC® 29213 [2]; plating on Mueller-Hinton agar, absence of growth): 100 µM | E. coli ATCC® 25922 (Inhibition %) (E. coli ATCC® 25922 [3]): 47.43 ± 2.76 % | E. coli ATCC® 8739 (Inhibition %) (E. coli ATCC® 8739): 64.78 ± 5.46 % | MIC (P. aeruginosa ATCC® 9027): 50 µM | IC50 (P. aeruginosa ATCC® 9027): 48.4 µM | MBC (P. aeruginosa ATCC® 9027): 50 µM
